# Where two headings read alike, the source gives them in different places. Where a SMILES comes first, the peptide text is derived from it. Bridges are numbered along the chain shown (N, C = ends). [ ]: non-standard residue; d: D form. The star is where a group is joined. X1 = O=C(O)CCCCCCCCCCCCCCCCC(=O)N[C@@H](CCC(=O)NCCOCCOCCOCCOCCOCCOCCOCCOCCOCCOCCOCCn1cc(C*)nn1)C(=O)O; Phe(4-COOH) = N[C@@H](Cc1ccc(C(=O)O)cc1)C(=O)O; Bip = N[C@@H](Cc1ccc(-c2ccccc2)cc1)C(=O)O; Phe(3-Me) = Cc1cccc(C[C@H](N)C(=O)O)c1; C12 diacid = O=C(O)CCCCCCCCCCC(=O)*; Cha = N[C@@H](CC1CCCCC1)C(=O)O; Carboxymethyl = O=C(O)C*; Nle = CCCC[C@H](N)C(=O)O; Orn = NCCC[C@H](N)C(=O)O; Dab = NCC[C@H](N)C(=O)O; Nva = CCC[C@H](N)C(=O)O; Abu = CC[C@H](N)C(=O)O
# Molecular target: T1, human PD-1 (Jurkat-PD-1 cells; binding of PE-labeled human PD-L1-Ig) (Homo sapiens, UniProt Q15116)
# T1 construct: expressed in transfected cells; host or cells: Jurkat (Jurkat-PD-1 / Jurkat-hPD-1)
# T1 sequence (Q15116 25-288): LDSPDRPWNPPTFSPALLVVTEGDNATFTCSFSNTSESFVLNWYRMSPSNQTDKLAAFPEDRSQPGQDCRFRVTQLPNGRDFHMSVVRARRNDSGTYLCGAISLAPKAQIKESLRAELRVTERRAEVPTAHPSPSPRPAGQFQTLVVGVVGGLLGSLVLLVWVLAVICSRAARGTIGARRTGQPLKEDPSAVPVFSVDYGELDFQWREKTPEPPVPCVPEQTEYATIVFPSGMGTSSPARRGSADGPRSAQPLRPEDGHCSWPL
# Assay: Jurkat-PD-1 Cell Binding High-Content Screening Assay
# Experimental: The ability of the compounds of formula (I) to bind to PD-1 was investigated using a Jurkat-PD-1 Cell Binding High-Content Screening Assay.
# Phycoerythrin (PE) was covalently linked to the Ig epitope tag of human PD-L1-Ig and fluorescently-labeled PD-L1-Ig was used for binding studies with a Jurkat cell line over-expressing human PD-1 (Jurkat-PD-1). Briefly, 8×10^3 Jurkat-hPD-1 cells were seeded into 384 well plates in 20 μl of DIVEM supplemented with 10% fetal calf serum. 100 nl of compound was added to cells followed by incubation at 37° C. for 2 h. Then, 5 μl of PE-labeled PD-L1-Ig (20 nM final), diluted in DiVEM supplemented with 10 fetal calf serum. After 1 hour incubation, cells were fixed with […] in dPBS containing 10 µg/mL Hoechst 33342 and then washed 3× in 100 μl dPB S. Data was collected and processed using a Cell Insight NXT High Content Imager and associated software.
# [1] = Jurkat cell line over-expressing human PD-1, compound 2 h at 37° C., then PE-labeled PD-L1-Ig 20 nM final, 1 hour, read-out: Jurkat hPD1 PDL1 IC50
IC50 [1] [µM],SMILES,IC50 [µM]
0.095,CC[C@@H]1NC(=O)CSC[C@@H](C(=O)N[C@@H](CCN)C(N)=O)NC(=O)[C@H](CCC(=O)O)NC(=O)[C@H](C(C)C)NC(=O)[C@H](CC2CCCCC2)NC(=O)[C@H](CCN)NC(=O)[C@@H](CC(C)C)NC(=O)[C@H](CCCN)NC(=O)[C@H](Cc2ccc(C(=O)O)cc2)NC(=O)[C@H](Cc2ccc(-c3ccccc3)cc2)NC(=O)[C@H](Cc2ccc(OCc3cn(CCOCCOCCOCCOCCOCCOCCOCCOCCOCCOCCOCCNC(=O)CC[C@H](NC(=O)CCCCCCCCCCCCCCCCC(=O)O)C(=O)O)nn3)cc2)NC(=O)[C@H](Cc2cccc(C)c2)NC(=O)[C@H](CC(=O)O)NC(=O)[C@H](Cc2ccc(C(=O)O)cc2)NC1=O [Compound 1021] ({CH2CO}-[Abu][Phe(4-COOH)]D[Phe(3-Me)]Y(X1)[Bip][Phe(4-COOH)][Orn][dL][Dab][Cha]VEC[Dab]-NH2; thioether N-14),–
0.054,CCC[C@@H]1NC(=O)CSC[C@@H](C(=O)N[C@@H](CCN)C(N)=O)NC(=O)[C@H](CCC(=O)O)NC(=O)[C@H](C(C)C)NC(=O)[C@H](CC2CCCCC2)NC(=O)[C@H](CCN)NC(=O)[C@@H](CC(C)C)NC(=O)[C@H](CCCN)NC(=O)[C@H](Cc2ccc(C(=O)O)cc2)NC(=O)[C@H](Cc2ccc(-c3ccccc3)cc2)NC(=O)[C@H](Cc2ccc(OCc3cn(CCOCCOCCOCCOCCOCCOCCOCCOCCOCCOCCOCCNC(=O)CC[C@H](NC(=O)CCCCCCCCCCCCCCCCC(=O)O)C(=O)O)nn3)cc2)NC(=O)[C@H](Cc2cccc(C)c2)NC(=O)[C@H](CC(=O)O)NC(=O)[C@H](Cc2ccc(C(=O)O)cc2)NC1=O [Compound 1022] ({CH2CO}-[Nva][Phe(4-COOH)]D[Phe(3-Me)]Y(X1)[Bip][Phe(4-COOH)][Orn][dL][Dab][Cha]VEC[Dab]-NH2; thioether N-14),–
0.099,Cc1cccc(C[C@@H]2NC(=O)[C@H](CC(=O)O)NC(=O)[C@H](Cc3ccc(C(=O)O)cc3)NC(=O)[C@H]([C@@H](C)O)NC(=O)CSC[C@@H](C(=O)N[C@@H](CCN)C(N)=O)NC(=O)[C@H](CCC(=O)O)NC(=O)[C@H](C(C)C)NC(=O)[C@H](CC3CCCCC3)NC(=O)[C@H](CCN)NC(=O)[C@@H](CC(C)C)NC(=O)[C@H](CCCN)NC(=O)[C@H](Cc3ccc(C(=O)O)cc3)NC(=O)[C@H](Cc3ccc(-c4ccccc4)cc3)NC(=O)[C@H](Cc3ccc(OCc4cn(CCOCCOCCOCCOCCOCCOCCOCCOCCOCCOCCOCCNC(=O)CC[C@H](NC(=O)CCCCCCCCCCCCCCCCC(=O)O)C(=O)O)nn4)cc3)NC2=O)c1 [Compound 1023] ({CH2CO}-T[Phe(4-COOH)]D[Phe(3-Me)]Y(X1)[Bip][Phe(4-COOH)][Orn][dL][Dab][Cha]VEC[Dab]-NH2; thioether N-14),–
0.4,CCCC[C@@H]1NC(=O)CSC[C@@H](C(=O)N[C@@H](CCN)C(N)=O)NC(=O)[C@H](CCC(=O)O)NC(=O)[C@H](C(C)C)NC(=O)[C@H](CC2CCCCC2)NC(=O)[C@H](CCN)NC(=O)[C@@H](CC(C)C)NC(=O)[C@H](CCCN)NC(=O)[C@H](Cc2ccc(OCc3cn(CCOCCOCCOCCOCCOCCOCCOCCOCCOCCOCCOCCNC(=O)CC[C@H](NC(=O)CCCCCCCCCCCCCCCCC(=O)O)C(=O)O)nn3)cc2)NC(=O)[C@H](Cc2ccc(-c3ccccc3)cc2)NC(=O)[C@H](Cc2ccc(OCC(=O)O)cc2)NC(=O)[C@H](Cc2cccc(C)c2)NC(=O)[C@H](CC(=O)O)NC(=O)[C@H](Cc2ccc(OCC(=O)O)cc2)NC1=O [Compound 1024] ({CH2CO}-[Nle]Y(Carboxymethyl)D[Phe(3-Me)]Y(Carboxymethyl)[Bip]Y(X1)[Orn][dL][Dab][Cha]VEC[Dab]-NH2; thioether N-14),–
0.17,Cc1cccc(C[C@@H]2NC(=O)[C@H](CC(=O)O)NC(=O)[C@H](Cc3ccc(OCC(=O)O)cc3)NC(=O)[C@H](CCNC(=O)CCCCCCCCCCC(=O)O)NC(=O)CSC[C@@H](C(N)=O)NC(=O)[C@H]([C@@H](C)O)NC(=O)[C@H](C(C)C)NC(=O)[C@H](CC3CCCCC3)NC(=O)[C@H](CCN)NC(=O)[C@@H](CC(C)C)NC(=O)[C@H](CCCN)NC(=O)[C@H](Cc3ccc(OCC(=O)O)cc3)NC(=O)[C@H](Cc3ccc(-c4ccccc4)cc3)NC(=O)[C@H](Cc3ccc(O)cc3)NC2=O)c1 [Compound 1034] ({CH2CO}-[Dab](C12 diacid)Y(Carboxymethyl)D[Phe(3-Me)]Y[Bip]Y(Carboxymethyl)[Orn][dL][Dab][Cha]VTC-NH2; thioether N-14),–

# Continued, compound first:
SMILES,IC50 [1] [µM],IC50 [µM]
CCCC[C@@H]1NC(=O)CSC[C@@H](C(=O)N[C@@H](CCN)C(N)=O)NC(=O)[C@H](CCC(=O)O)NC(=O)[C@H](C(C)C)NC(=O)[C@H](CC2CCCCC2)NC(=O)[C@H](CCN)NC(=O)[C@@H](CC(C)C)NC(=O)[C@H](CCCN)NC(=O)[C@H](Cc2ccc(OCC(=O)O)cc2)NC(=O)[C@H](Cc2ccc(-c3ccccc3)cc2)NC(=O)[C@H](Cc2ccc(OCc3cn(CCOCCOCCOCCOCCOCCOCCOCCOCCOCCOCCOCCNC(=O)CC[C@H](NC(=O)CCCCCCCCCCCCCCCCC(=O)O)C(=O)O)nn3)cc2)NC(=O)[C@H](Cc2cccc(C)c2)NC(=O)[C@H](CC(=O)O)NC(=O)[C@H](Cc2ccc(OCC(=O)O)cc2)NC1=O [Compound 1016] ({CH2CO}-[Nle]Y(Carboxymethyl)D[Phe(3-Me)]Y(X1)[Bip]Y(Carboxymethyl)[Orn][dL][Dab][Cha]VEC[Dab]-NH2; thioether N-14),0.1,–
CC[C@@H]1NC(=O)CSC[C@@H](C(=O)N[C@@H](CCN)C(N)=O)NC(=O)[C@H](CCC(=O)O)NC(=O)[C@H](C(C)C)NC(=O)[C@H](CC2CCCCC2)NC(=O)[C@H](CCN)NC(=O)[C@@H](CC(C)C)NC(=O)[C@H](CCCN)NC(=O)[C@H](Cc2ccc(OCC(=O)O)cc2)NC(=O)[C@H](Cc2ccc(-c3ccccc3)cc2)NC(=O)[C@H](Cc2ccc(OCc3cn(CCOCCOCCOCCOCCOCCOCCOCCOCCOCCOCCOCCNC(=O)CC[C@H](NC(=O)CCCCCCCCCCCCCCCCC(=O)O)C(=O)O)nn3)cc2)NC(=O)[C@H](Cc2cccc(C)c2)NC(=O)[C@H](CC(=O)O)NC(=O)[C@H](Cc2ccc(OCC(=O)O)cc2)NC1=O [Compound 1017] ({CH2CO}-[Abu]Y(Carboxymethyl)D[Phe(3-Me)]Y(X1)[Bip]Y(Carboxymethyl)[Orn][dL][Dab][Cha]VEC[Dab]-NH2; thioether N-14),0.09,–
CCC[C@@H]1NC(=O)CSC[C@@H](C(=O)N[C@@H](CCN)C(N)=O)NC(=O)[C@H](CCC(=O)O)NC(=O)[C@H](C(C)C)NC(=O)[C@H](CC2CCCCC2)NC(=O)[C@H](CCN)NC(=O)[C@@H](CC(C)C)NC(=O)[C@H](CCCN)NC(=O)[C@H](Cc2ccc(OCC(=O)O)cc2)NC(=O)[C@H](Cc2ccc(-c3ccccc3)cc2)NC(=O)[C@H](Cc2ccc(OCc3cn(CCOCCOCCOCCOCCOCCOCCOCCOCCOCCOCCOCCNC(=O)CC[C@H](NC(=O)CCCCCCCCCCCCCCCCC(=O)O)C(=O)O)nn3)cc2)NC(=O)[C@H](Cc2cccc(C)c2)NC(=O)[C@H](CC(=O)O)NC(=O)[C@H](Cc2ccc(OCC(=O)O)cc2)NC1=O [Compound 1018] ({CH2CO}-[Nva]Y(Carboxymethyl)D[Phe(3-Me)]Y(X1)[Bip]Y(Carboxymethyl)[Orn][dL][Dab][Cha]VEC[Dab]-NH2; thioether N-14),0.11,–
Cc1cccc(C[C@@H]2NC(=O)[C@H](CC(=O)O)NC(=O)[C@H](Cc3ccc(OCC(=O)O)cc3)NC(=O)[C@H]([C@@H](C)O)NC(=O)CSC[C@@H](C(=O)N[C@@H](CCN)C(N)=O)NC(=O)[C@H](CCC(=O)O)NC(=O)[C@H](C(C)C)NC(=O)[C@H](CC3CCCCC3)NC(=O)[C@H](CCN)NC(=O)[C@@H](CC(C)C)NC(=O)[C@H](CCCN)NC(=O)[C@H](Cc3ccc(OCC(=O)O)cc3)NC(=O)[C@H](Cc3ccc(-c4ccccc4)cc3)NC(=O)[C@H](Cc3ccc(OCc4cn(CCOCCOCCOCCOCCOCCOCCOCCOCCOCCOCCOCCNC(=O)CC[C@H](NC(=O)CCCCCCCCCCCCCCCCC(=O)O)C(=O)O)nn4)cc3)NC2=O)c1 [Compound 1019] ({CH2CO}-TY(Carboxymethyl)D[Phe(3-Me)]Y(X1)[Bip]Y(Carboxymethyl)[Orn][dL][Dab][Cha]VEC[Dab]-NH2; thioether N-14),0.14,–
CCCC[C@@H]1NC(=O)CSC[C@@H](C(=O)N[C@@H](CCN)C(N)=O)NC(=O)[C@H](CCC(=O)O)NC(=O)[C@H](C(C)C)NC(=O)[C@H](CC2CCCCC2)NC(=O)[C@H](CCN)NC(=O)[C@@H](CC(C)C)NC(=O)[C@H](CCCN)NC(=O)[C@H](Cc2ccc(C(=O)O)cc2)NC(=O)[C@H](Cc2ccc(-c3ccccc3)cc2)NC(=O)[C@H](Cc2ccc(OCc3cn(CCOCCOCCOCCOCCOCCOCCOCCOCCOCCOCCOCCNC(=O)CC[C@H](NC(=O)CCCCCCCCCCCCCCCCC(=O)O)C(=O)O)nn3)cc2)NC(=O)[C@H](Cc2cccc(C)c2)NC(=O)[C@H](CC(=O)O)NC(=O)[C@H](Cc2ccc(C(=O)O)cc2)NC1=O [Compound 1020] ({CH2CO}-[Nle][Phe(4-COOH)]D[Phe(3-Me)]Y(X1)[Bip][Phe(4-COOH)][Orn][dL][Dab][Cha]VEC[Dab]-NH2; thioether N-14),0.096,–
CCCC[C@@H]1NC(=O)CSC[C@@H](C(=O)N[C@@H](CCN)C(N)=O)NC(=O)[C@H](CCC(=O)O)NC(=O)[C@H](C(C)C)NC(=O)[C@H](CC2CCCCC2)NC(=O)[C@H](CCN)NC(=O)[C@@H](CC(C)C)NC(=O)[C@H](CCCN)NC(=O)[C@H](Cc2ccc(OCc3cn(CCOCCOCCOCCOCCOCCOCCOCCOCCOCCOCCOCCNC(=O)CC[C@H](NC(=O)CCCCCCCCCCCCCCCCC(=O)O)C(=O)O)nn3)cc2)NC(=O)[C@H](Cc2ccc(-c3ccccc3)cc2)NC(=O)[C@H](Cc2ccc(C(=O)O)cc2)NC(=O)[C@H](Cc2cccc(C)c2)NC(=O)[C@H](CC(=O)O)NC(=O)[C@H](Cc2ccc(C(=O)O)cc2)NC1=O [Compound 1028] ({CH2CO}-[Nle][Phe(4-COOH)]D[Phe(3-Me)][Phe(4-COOH)][Bip]Y(X1)[Orn][dL][Dab][Cha]VEC[Dab]-NH2; thioether N-14),–,0.43

# Reference: patent US20250250299A1, “MACROCYCLIC IMMUNOMODULATORS” (Bristol-Myers Squibb Company, priority 2022, published 2025)
